The record followed here is US12331044B2, “Inhibitors of histone deacetylase useful for the treatment or prevention of HIV infection” (Merck Sharp & Dohme LLC, priority 2018, dated 2025).

Structures are written as SMILES. Like-named read-outs stand apart in the source and are kept apart here.

For one assay, the target named is human HDAC1 (Homo sapiens (Human), UniProt Q13547).
A further assay relates to KARN cells (Jurkat 2C4). Put plainly: cells. The following applies: Homo sapiens.
The target of another assay is human HDAC8 (Homo sapiens (Human), UniProt Q9BY41). Briefly: HDAC8 inhibition assay (modified FLUOR DE LYS, 384-well). Format: biochemical. The note with it: […] enzyme, 200 μM substrate BML-KI178, 3 h pre-incubation; read-out: HDAC8 IC50.
Sequence of human HDAC8 (Q9BY41 whole entry): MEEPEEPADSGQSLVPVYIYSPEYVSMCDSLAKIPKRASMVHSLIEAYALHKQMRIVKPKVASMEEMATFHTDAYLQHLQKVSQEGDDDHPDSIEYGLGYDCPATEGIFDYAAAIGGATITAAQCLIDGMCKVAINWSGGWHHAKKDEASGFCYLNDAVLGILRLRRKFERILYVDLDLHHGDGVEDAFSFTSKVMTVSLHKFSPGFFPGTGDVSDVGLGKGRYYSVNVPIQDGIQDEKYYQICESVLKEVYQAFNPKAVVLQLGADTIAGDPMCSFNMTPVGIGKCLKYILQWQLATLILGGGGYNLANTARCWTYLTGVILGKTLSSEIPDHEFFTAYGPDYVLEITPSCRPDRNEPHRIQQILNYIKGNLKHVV
A further assay addresses HDAC6 (Homo sapiens (Human), UniProt Q9UBN7).
Assay [1] deals with human HDAC3/SMRT heterodimer (Homo sapiens (Human), UniProt O15379).
Sequence of human HDAC3/SMRT heterodimer (O15379 whole entry): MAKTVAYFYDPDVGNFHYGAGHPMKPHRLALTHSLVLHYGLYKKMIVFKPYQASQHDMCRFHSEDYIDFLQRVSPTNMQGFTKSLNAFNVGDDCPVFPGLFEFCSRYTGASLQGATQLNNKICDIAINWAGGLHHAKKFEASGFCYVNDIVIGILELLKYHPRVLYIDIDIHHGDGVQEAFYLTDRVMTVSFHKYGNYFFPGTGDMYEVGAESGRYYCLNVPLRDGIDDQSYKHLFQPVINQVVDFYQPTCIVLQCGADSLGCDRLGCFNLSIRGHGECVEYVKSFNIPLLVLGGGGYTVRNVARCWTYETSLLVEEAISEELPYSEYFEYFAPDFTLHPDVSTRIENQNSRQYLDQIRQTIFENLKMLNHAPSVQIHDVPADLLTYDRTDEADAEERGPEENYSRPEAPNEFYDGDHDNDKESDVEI
Sequence of human HDAC3/SMRT heterodimer (Q9Y618 1-899 partner): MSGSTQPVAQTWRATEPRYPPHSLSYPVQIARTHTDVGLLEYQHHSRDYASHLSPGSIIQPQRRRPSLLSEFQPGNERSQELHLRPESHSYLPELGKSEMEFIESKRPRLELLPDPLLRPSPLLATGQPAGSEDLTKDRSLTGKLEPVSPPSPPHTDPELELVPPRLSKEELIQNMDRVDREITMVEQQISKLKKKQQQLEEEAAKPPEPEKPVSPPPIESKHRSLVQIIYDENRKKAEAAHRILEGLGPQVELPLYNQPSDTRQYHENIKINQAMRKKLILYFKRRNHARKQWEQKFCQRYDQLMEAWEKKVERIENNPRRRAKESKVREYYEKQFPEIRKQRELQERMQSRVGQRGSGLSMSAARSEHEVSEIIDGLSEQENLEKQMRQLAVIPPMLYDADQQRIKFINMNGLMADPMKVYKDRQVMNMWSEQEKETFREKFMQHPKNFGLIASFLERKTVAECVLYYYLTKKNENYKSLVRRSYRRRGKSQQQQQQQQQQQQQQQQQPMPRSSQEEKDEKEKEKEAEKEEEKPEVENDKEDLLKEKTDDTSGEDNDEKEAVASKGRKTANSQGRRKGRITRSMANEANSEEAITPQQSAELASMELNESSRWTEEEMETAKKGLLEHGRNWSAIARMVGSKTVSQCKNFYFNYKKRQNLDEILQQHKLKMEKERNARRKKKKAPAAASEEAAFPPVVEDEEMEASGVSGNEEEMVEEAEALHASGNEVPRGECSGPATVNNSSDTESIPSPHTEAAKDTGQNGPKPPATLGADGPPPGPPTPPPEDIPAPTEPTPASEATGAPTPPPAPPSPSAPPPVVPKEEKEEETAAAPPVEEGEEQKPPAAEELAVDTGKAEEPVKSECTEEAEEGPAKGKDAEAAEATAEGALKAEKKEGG
The next assay addresses human HDAC2 (Homo sapiens (Human), UniProt Q92769). Put plainly: HDAC2 inhibition assay (modified FLUOR DE LYS, 384-well). The format is biochemical. The following applies: […] enzyme, 40 μM substrate BML-KI104, 3 h pre-incubation; read-out: HDAC2 IC50.
[2] abbreviates: read-out: Karn EC50 nM 0.1% NHS, 0.1% normal human serum, luciferase induction, 2 μM SAHA = 100%.
Setting [3] is: read-out: Karn EC50 nM 5% NHS, 5% normal human serum, luciferase induction, 2 μM SAHA = 100%.

Sequence of human HDAC1 (Q13547 whole entry): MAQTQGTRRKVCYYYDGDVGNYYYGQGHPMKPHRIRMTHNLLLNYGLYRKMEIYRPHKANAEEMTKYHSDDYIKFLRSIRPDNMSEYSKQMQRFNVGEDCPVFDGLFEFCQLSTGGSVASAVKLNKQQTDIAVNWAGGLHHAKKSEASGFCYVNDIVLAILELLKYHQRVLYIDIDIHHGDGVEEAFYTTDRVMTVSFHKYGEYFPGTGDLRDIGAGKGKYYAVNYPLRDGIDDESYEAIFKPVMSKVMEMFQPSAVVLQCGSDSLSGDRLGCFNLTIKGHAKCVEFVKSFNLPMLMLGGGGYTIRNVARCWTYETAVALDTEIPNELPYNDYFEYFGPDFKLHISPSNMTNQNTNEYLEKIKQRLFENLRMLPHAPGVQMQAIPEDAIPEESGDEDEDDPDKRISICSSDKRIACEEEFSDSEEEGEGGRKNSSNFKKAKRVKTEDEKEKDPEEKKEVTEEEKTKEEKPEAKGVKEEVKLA
Sequence of HDAC6 (Q9UBN7 whole entry): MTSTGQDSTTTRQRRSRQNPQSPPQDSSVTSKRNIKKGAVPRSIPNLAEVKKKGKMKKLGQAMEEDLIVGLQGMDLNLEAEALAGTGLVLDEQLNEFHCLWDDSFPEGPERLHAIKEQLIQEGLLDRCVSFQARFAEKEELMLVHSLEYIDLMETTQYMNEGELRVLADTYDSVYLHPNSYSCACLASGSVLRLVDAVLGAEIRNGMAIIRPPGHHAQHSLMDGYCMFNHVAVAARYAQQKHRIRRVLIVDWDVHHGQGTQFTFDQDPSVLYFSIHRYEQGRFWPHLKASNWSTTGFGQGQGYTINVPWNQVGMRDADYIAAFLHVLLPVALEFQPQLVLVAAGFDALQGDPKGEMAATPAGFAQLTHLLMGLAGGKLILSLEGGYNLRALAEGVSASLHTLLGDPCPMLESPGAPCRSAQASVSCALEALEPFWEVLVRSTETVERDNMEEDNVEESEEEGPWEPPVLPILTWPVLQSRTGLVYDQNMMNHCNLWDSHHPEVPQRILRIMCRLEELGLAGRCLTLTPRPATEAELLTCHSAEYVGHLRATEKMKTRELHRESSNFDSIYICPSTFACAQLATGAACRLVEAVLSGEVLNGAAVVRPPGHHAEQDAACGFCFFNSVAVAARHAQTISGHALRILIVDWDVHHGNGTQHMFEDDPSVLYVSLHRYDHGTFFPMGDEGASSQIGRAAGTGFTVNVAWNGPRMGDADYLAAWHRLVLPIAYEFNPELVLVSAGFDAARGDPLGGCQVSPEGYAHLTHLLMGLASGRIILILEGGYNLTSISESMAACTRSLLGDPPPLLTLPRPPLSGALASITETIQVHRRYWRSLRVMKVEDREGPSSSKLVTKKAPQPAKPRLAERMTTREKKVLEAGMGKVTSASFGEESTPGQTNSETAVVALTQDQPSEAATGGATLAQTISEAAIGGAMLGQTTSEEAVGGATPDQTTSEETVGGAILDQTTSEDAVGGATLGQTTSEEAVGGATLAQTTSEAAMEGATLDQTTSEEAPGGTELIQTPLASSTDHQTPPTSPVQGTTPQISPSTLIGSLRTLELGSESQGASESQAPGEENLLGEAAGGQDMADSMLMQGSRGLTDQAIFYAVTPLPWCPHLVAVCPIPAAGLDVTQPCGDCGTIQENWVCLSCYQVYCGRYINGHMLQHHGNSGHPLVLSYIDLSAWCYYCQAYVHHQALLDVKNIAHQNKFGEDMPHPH
Sequence of human HDAC2 (Q92769 whole entry): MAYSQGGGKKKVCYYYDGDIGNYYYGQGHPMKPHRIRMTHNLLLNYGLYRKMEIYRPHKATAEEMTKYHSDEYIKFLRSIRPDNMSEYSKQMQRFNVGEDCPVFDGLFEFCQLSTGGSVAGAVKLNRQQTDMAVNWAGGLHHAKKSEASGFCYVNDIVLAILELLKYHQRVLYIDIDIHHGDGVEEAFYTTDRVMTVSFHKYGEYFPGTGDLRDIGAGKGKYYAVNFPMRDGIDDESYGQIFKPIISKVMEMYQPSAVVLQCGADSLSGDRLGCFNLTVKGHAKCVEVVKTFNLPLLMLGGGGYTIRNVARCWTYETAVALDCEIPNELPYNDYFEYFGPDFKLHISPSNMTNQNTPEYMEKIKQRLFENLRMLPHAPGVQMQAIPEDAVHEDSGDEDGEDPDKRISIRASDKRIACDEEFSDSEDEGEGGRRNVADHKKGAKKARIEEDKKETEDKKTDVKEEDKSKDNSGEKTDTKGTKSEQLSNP

The term IC50 denotes the concentration that gives 50% inhibition. Usually EC50 stands for the concentration needed to bring the measured effect to its halfway point. Regarding `Cn1cc2cc(-n3ccc([C@@H](N)CCCCCC(=O)c4ncco4)n3)ccc2n1` [Example 128, (7S)-7-amino-7-[1-(2-methyl-2H-indazol-5-yl)-1H-pyrazol-3-yl]-1-(1,3-oxazol-2-yl)heptan-1-one], the IC50 against human HDAC1 amounted to 8 nM; at human HDAC8, 4300 nM; against HDAC6 it was 45000 nM; in assay [1], 10 nM; at human HDAC2, 55 nM. Further, the figures for the EC50 in the assay on KARN cells (Jurkat 2C4) (setting [2]) and with KARN cells (Jurkat 2C4) (setting [3]) were 1200 nM and 1500 nM, respectively.

Turning to `N[C@@H](CCCCCC(=O)c1ncco1)c1ncc(-c2cccc(C(F)(F)F)c2F)[nH]1` [Example 138, (7S)-7-amino-7-{5-[2-fluoro-3-(trifluoromethyl)phenyl]-1H-imidazol-2-yl}-1-(1,3-oxazol-2-yl)heptan-1-one], the IC50 is 4.3 nM on human HDAC1; 250 nM at human HDAC8; more than 900 nM against HDAC6; 3.9 nM in assay [1]; 37 nM on human HDAC2. Also, the values for the EC50 with KARN cells (Jurkat 2C4) (setting [2]) and in the assay on KARN cells (Jurkat 2C4) (setting [3]) were 2200 nM and 3400 nM, respectively.

Turning to `N[C@@H](CCCCCC(=O)c1ncco1)c1ncc(-c2ccc(C(F)(F)F)cc2F)[nH]1` [Example 139, (7S)-7-amino-7-{5-[2-fluoro-4-(trifluoromethyl)phenyl]-1H-imidazol-2-yl}-1-(1,3-oxazol-2-yl)heptan-1-one], the concentration for half-maximal inhibition (IC50) against human HDAC1 was 5.6 nM; at human HDAC8 it was more than 900 nM; at HDAC6 it was more than 900 nM; in assay [1], 5.9 nM; at human HDAC2, 28 nM. Besides, the EC50 turned out to be 1700 nM with KARN cells (Jurkat 2C4) (setting [2]) and 2700 nM in the assay with KARN cells (Jurkat 2C4) (setting [3]).

Consider `COc1ccc(-c2cnc([C@@H](N)CCCCCC(=O)c3ncco3)[nH]2)c(F)c1` [Example 140, (7S)-7-amino-7-[5-(2-fluoro-4-methoxyphenyl)-1H-imidazol-2-yl]-1-(1,3-oxazol-2-yl)heptan-1-one], for which the IC50 at human HDAC1 was 1 nM; at human HDAC8 it was more than 900 nM; on HDAC6, more than 900 nM; in assay [1] it was 1.3 nM; on human HDAC2 it was 6 nM. Also, the EC50 with KARN cells (Jurkat 2C4) (setting [2]) is 390 nM; with KARN cells (Jurkat 2C4) (setting [3]), 860 nM.

On to `CS(=O)(=O)c1ccc(-c2cnc([C@@H](N)CCCCCC(=O)c3ncco3)[nH]2)c(F)c1` [Example 143, (7S)-7-amino-7-{5-[2-fluoro-4-(methylsulfonyl)phenyl]-1H-imidazol-2-yl}-1-(1,3-oxazol-2-yl)heptan-1-one], for which the IC50 against human HDAC1 was 7.2 nM; at human HDAC8 it was more than 900 nM; on HDAC6, more than 900 nM; in assay [1] it was 7.9 nM; on human HDAC2, 35 nM. The EC50 was found to be 1200 nM in the assay with KARN cells (Jurkat 2C4) (setting [2]) and 1600 nM in the assay on KARN cells (Jurkat 2C4) (setting [3]).

`COc1cc(O[C@H]2C[C@H](OC)C2)cc(-c2cnc([C@@H](N)CCCCCC(=O)c3ncco3)[nH]2)c1F` [Example 144, (7S)-7-amino-7-(5-{2-fluoro-3-methoxy-5-[(trans-3-methoxycyclobutyl)oxy]phenyl}-1H-imidazol-2-yl)-1-(1,3-oxazol-2-yl)heptan-1-one]: the IC50 against human HDAC1 was 7 nM; on human HDAC8 it was 210 nM; on HDAC6, more than 900 nM; in assay [1], 6.4 nM; at human HDAC2, 39 nM. The figures for the EC50 in the assay with KARN cells (Jurkat 2C4) (setting [2]) and in the assay on KARN cells (Jurkat 2C4) (setting [3]) were 650 nM and 870 nM, respectively.

`COc1nc2ccccc2cc1-c1cnc([C@H](CCCCCC(=O)c2ncco2)NC(=O)c2ccncn2)[nH]1` [Example 149, N-[(1S)-1-[5-(2-methoxyquinolin-3-yl)-1H-imidazol-2-yl]-7-(1,3-oxazol-2-yl)-7-oxoheptyl]pyrimidine-4-carboxamide]: the IC50 against human HDAC1 was determined as 1.7 nM; at human HDAC8 it was 140 nM; on HDAC6 it was 21000 nM; in assay [1], 1.5 nM; at human HDAC2, 6.6 nM. Besides, the values for the EC50 with KARN cells (Jurkat 2C4) (setting [2]) and in the assay on KARN cells (Jurkat 2C4) (setting [3]) were 69 nM and 360 nM, respectively.

Consider `COc1nc2ccccc2cc1-c1cnc([C@H](CCCCCC(=O)c2ncco2)NC(=O)Cn2cccc2)[nH]1` [Example 150, N-[(1S)-1-[5-(2-methoxyquinolin-3-yl)-1H-imidazol-2-yl]-7-(1,3-oxazol-2-yl)-7-oxoheptyl]-2-(1H-pyrrol-1-yl)acetamide], for which the IC50 against human HDAC1 turned out to be 2.1 nM; at human HDAC8, 120 nM; on HDAC6, 2700 nM; in assay [1], 1.5 nM; at human HDAC2, 8.8 nM. For the same molecule, the EC50 in the assay on KARN cells (Jurkat 2C4) (setting [2]) turned out to be 94 nM; in the assay with KARN cells (Jurkat 2C4) (setting [3]), 500 nM.

Regarding `COc1nc2ccccc2cc1-c1cnc([C@H](CCCCCC(=O)c2ncco2)NC(=O)C2COCCO2)[nH]1` (stereo partly drawn) [Example 152, N-[(1S)-1-[5-(2-methoxyquinolin-3-yl)-1H-imidazol-2-yl]-7-(1,3-oxazol-2-yl)-7-oxoheptyl]-1,4-dioxane-2-carboxamide], the IC50 against human HDAC1 turned out to be 0.68 nM; at human HDAC8 it was 78 nM; against HDAC6, 12000 nM; in assay [1], 1.6 nM; on human HDAC2 it was 5.8 nM. In addition, the EC50 came out at 49 nM with KARN cells (Jurkat 2C4) (setting [2]) and 350 nM in the assay on KARN cells (Jurkat 2C4) (setting [3]).

For `COc1cc2nc(C)ccc2cc1-c1cnc([C@H](CCCCCC(=O)c2ncco2)NC(=O)CN2CCOCC2=O)[nH]1` [Example 158, N-[(1S)-1-[5-(7-methoxy-2-methylquinolin-6-yl)-1H-imidazol-2-yl]-7-(1,3-oxazol-2-yl)-7-oxoheptyl]-2-(3-oxomorpholin-4-yl)acetamide], the IC50 stood at 1.1 nM against human HDAC1; 48 nM at human HDAC8; 590 nM on HDAC6; 1.5 nM in assay [1]; 5.6 nM on human HDAC2. The EC50 with KARN cells (Jurkat 2C4) (setting [2]) and in the assay with KARN cells (Jurkat 2C4) (setting [3]) was 210 nM each time.

With `COc1cc2nc(C)ccc2cc1-c1cnc([C@H](CCCCCC(=O)c2ncco2)NC(=O)c2cc3ncccn3n2)[nH]1` [Example 161, N-[(1S)-1-[5-(7-methoxy-2-methylquinolin-6-yl)-1H-imidazol-2-yl]-7-(1,3-oxazol-2-yl)-7-oxoheptyl]pyrazolo[1,5-a]pyrimidine-2-carboxamide], the IC50 was 1.7 nM against human HDAC1; 44 nM at human HDAC8; more than 900 nM against HDAC6; 0.57 nM in assay [1]; 11 nM at human HDAC2. For the same molecule, the EC50 in the assay with KARN cells (Jurkat 2C4) (setting [2]) was 75 nM; with KARN cells (Jurkat 2C4) (setting [3]), 210 nM.

On to `COc1cc2nc(C)ccc2cc1-c1cnc([C@H](CCCCCC(=O)c2ncco2)NC(=O)Cn2cccc2)[nH]1` [Example 162, N-[(1S)-1-[5-(7-methoxy-2-methylquinolin-6-yl)-1H-imidazol-2-yl]-7-(1,3-oxazol-2-yl)-7-oxoheptyl]-2-(1H-pyrrol-1-yl)acetamide], for which the IC50 is 4.2 nM against human HDAC1; 300 nM at human HDAC8; more than 900 nM at HDAC6; 1.5 nM in assay [1]; 24 nM at human HDAC2. Also, the EC50 in the assay with KARN cells (Jurkat 2C4) (setting [2]) is 650 nM; with KARN cells (Jurkat 2C4) (setting [3]), 1200 nM.

Regarding `COc1cc2nc(C)ccc2cc1-c1cnc([C@H](CCCCCC(=O)c2ncco2)NC(=O)c2cc3n(n2)CCCO3)[nH]1` [Example 163, N-[(1S)-1-[5-(7-methoxy-2-methylquinolin-6-yl)-1H-imidazol-2-yl]-7-(1,3-oxazol-2-yl)-7-oxoheptyl]-6,7-dihydro-5H-pyrazolo[5,1-b][1,3]oxazine-2-carboxamide], the IC50 against human HDAC1 is 1.6 nM; on human HDAC8 it was 38 nM; against HDAC6, more than 900 nM; in assay [1] it was 0.53 nM; at human HDAC2 it was 8.4 nM. Also, the EC50 is 84 nM in the assay with KARN cells (Jurkat 2C4) (setting [2]) and 210 nM in the assay with KARN cells (Jurkat 2C4) (setting [3]).
